Experimental data reported in article PMC4529334, “Activity of second-generation ALK inhibitors against crizotinib-resistant mutants in an NPM-ALK model compared to EML4-ALK” (Cancer Medicine, 2015).

Key:
[1] = system: EML4-ALK (EA WT); details: […] h, […] °C, no IL-3; ALK-dependent cell growth; stated gain
[2] = system: T1, NPM-ALK (NA WT); assay: Ba/F3 proliferation, [3H]-thymidine incorporation; assay type: cell-based, Homo sapiens; details: […] °C, no IL-3, ALK-dependent cell growth, parental Ba/F3 as control
T1 construct: NPM-ALK fusion from t(2;5)(p23;q35), pcDNA3.0, stably expressed in murine Ba/F3 cells (IL-3-independent); single fused polypeptide NPM1 N-terminal part + ALK C-terminal part with kinase domain; with Nucleophosmin

[3] = system: T1, NPM-ALK (NA WT); assay: Ba/F3 proliferation, [3H]-thymidine incorporation; assay type: cell-based, Homo sapiens; details: […] °C, no IL-3, ALK-dependent cell growth, stated gain
[4] = system: T2, EML4-ALK (EA WT); assay: Ba/F3 proliferation, [3H]-thymidine incorporation; assay type: cell-based, Homo sapiens; details: […] °C, no IL-3, ALK-dependent cell growth, parental Ba/F3 as control
T2 construct: EML4-ALK fusion (EML4 exon 6 to ALK exon 20) in pCDH-CMV-MCS-EF1-Puro, stably expressed in murine Ba/F3 cells (IL-3-independent); single fused polypeptide; with Echinoderm microtubule-associated protein-like 4

[5] = system: T2, EML4-ALK (EA WT); assay: Ba/F3 proliferation, [3H]-thymidine incorporation; assay type: cell-based, Homo sapiens; details: […] °C, no IL-3, ALK-dependent cell growth, parental Ba/F3 as control; remark: listed apart in the source
Description: Ba/F3 proliferation, [3H]-thymidine incorporation on EML4-ALK (EA WT)

[6] = system: T1, NPM-ALK (NA WT); assay: Ba/F3 proliferation, [3H]-thymidine incorporation; assay type: cell-based, Homo sapiens; details: […] °C, no IL-3, ALK-dependent cell growth, parental Ba/F3 as control; remark: listed apart in the source
[7] = system: NPM-ALK (NA WT); details: […] h, […] °C, no IL-3; ALK-dependent cell growth; stated gain
Description: Ba/F3 proliferation, [3H]-thymidine incorporation on NPM-ALK (NA WT)

COc1cc(N2CCC(N3CCN(C)CC3)CC2)ccc1Nc1ncc(Cl)c(Nc2ccccc2P(C)(C)=O)n1 [AP26113] was tested, and the “IC50 (μmol/L) / AP26113” value [1] was 0.021 µmol/L.

COc1cc(N2CCC(N3CCN(C)CC3)CC2)ccc1Nc1ncnc(Nc2ccccc2S(=O)(=O)C(C)C)n1 [ASP3026] was tested, and the “IC50 (μmol/L) / ASP3026” value [2] was 0.084 µmol/L, the “IC50 (μmol/L) / ASP3026” value [3] was 2.763 µmol/L and the “IC50 (μmol/L) / ASP3026” value [4] was 0.056 µmol/L.

In the case of Cc1cc(Nc2ncc(Cl)c(Nc3ccccc3S(=O)(=O)C(C)C)n2)c(OC(C)C)cc1C1CCNCC1 [ceritinib], the “IC50 (μmol/L) / Ceritinib” value [5] is reported as […], the “IC50 (μmol/L) / Alectinib” value [6] is reported as […] and the “IC50 (μmol/L) / Ceritinib” value [7] is reported as […].
